# Molecular target: T1, Recombinant human HSD17B13 enzyme (Homo sapiens, UniProt Q7Z5P4)
# T1 sequence (Q7Z5P4 20-300): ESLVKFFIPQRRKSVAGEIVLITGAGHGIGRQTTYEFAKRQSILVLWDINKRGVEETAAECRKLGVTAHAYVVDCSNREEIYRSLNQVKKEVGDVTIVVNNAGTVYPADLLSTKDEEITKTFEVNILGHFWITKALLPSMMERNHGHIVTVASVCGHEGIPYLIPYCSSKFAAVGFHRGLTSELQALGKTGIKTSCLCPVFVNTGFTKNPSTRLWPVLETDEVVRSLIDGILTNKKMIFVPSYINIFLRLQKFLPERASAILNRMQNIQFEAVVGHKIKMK
# Test: HSD17b13 NAD(P)H-Glo biochemical assay
# Conditions: 50 uM estradiol, 1 mM NAD+, NAD(P)H-Glo luminescence; read-out: HSD17β13 IC50
# Procedure: Example B-1: HSD17b13 NAD(P)H-Glo Biochemical Assay
# Recombinant human HSD17B13 enzyme. Substrate: estradiol (Sigma β-Estradiol E8875), 100 mM in DMSO. Cofactor: NAD+ Grade I free acid (Sigma 10127965001), 20 mM in H2O. Assay buffer final concentration: 20 mM Tris pH7.4 with 0.002% Tween-20 and 0.02% BSA. Assay performed in 384 well solid bottom plate (Corning 3570). Enzymatic activity detected by NAD(P)H-Glo™ Detection System (Promega G9062).
# Inhibitor compounds were serially diluted in DMSO and then further diluted in assay buffer to a 10× concentration consisting of 1% DMSO.
# HSD17b13 enzyme was diluted in 1× assay buffer to the desired enzyme concentration based on the specific activity of the enzyme lot. 20 uL of diluted enzyme was added to each well along with 2.5 uL of 10× inhibitor solution. Assay plate was incubated at RT for 20 minutes, and then 2.5 uL of a 10× substrate/cofactor mix was added to each well for a final concentration of 50 uM estradiol and 1 mM NAD+. Assay plate was incubated at 37° C. for 3 hours. NAD(P)H-Glo™ Detection System reagents were prepared according to manufacturer's specifications, and 25 uL was added to each well. After incubating for 1 hour at RT, luminescence was measured.
row,SMILES,IC50 [nM]
1,"Cn1nc(-c2cc(C(F)(F)F)c(F)c(O)c2F)c2cnc(N3CCC3(C)C)nc21 [Compound 9.05, 3-(6-(2,2-Dimethylazetidin-1-yl)-1-methyl-1H-pyrazolo[3,4-d]pyrimidin-3-yl)-2,6-difluoro-5-(trifluoromethyl)phenol]",100 to 1000
2,"CN(c1nc2c(cc1F)c(-c1cc(C(F)(F)F)c(F)c(O)c1F)nn2C)C1CCOCC1 [Compound 9.103, 2,6-Difluoro-3-(5-fluoro-1-methyl-6-(methyl(tetrahydro-2H-pyran-4-yl)amino)-1H-pyrazolo[3,4-b]pyridin-3-yl)-5-(trifluoromethyl)phenol]",< 100
3,"Cn1nc(-c2cc(C(F)(F)F)c(F)c(O)c2F)c2cnc(N3CC(=O)NCC34CC4)cc21 [Compound 9.114, 4-(3-(2,4-Difluoro-3-hydroxy-5-(trifluoromethyl)phenyl)-1-methyl-1H-pyrazolo[4,3-c]pyridin-6-yl)-4,7-diazaspiro[2.5]octan-6-one]",< 100
4,"CN(c1cc2c(cn1)c(-c1nc(C(F)(F)F)c(F)c(O)c1F)nn2C)C1CCOCC1 [Compound 22, 3,5-Difluoro-2-(1-methyl-6-(methyl(tetrahydro-2H-pyran-4-yl)amino)-1H-pyrazolo[4,3-c]pyridin-3-yl)-6-(trifluoromethyl)pyridin-4-ol]",100 to 1000
5,"Cn1nc(-c2cc(C(F)(F)F)c(F)c(O)c2F)c2cnc(N3CCC4(CCCC(=O)N4)CC3)nc21 [Compound 18.26, 9-(3-(2,4-Difluoro-3-hydroxy-5-(trifluoromethyl)phenyl)-1-methyl-1H-pyrazolo[3,4-d]pyrimidin-6-yl)-1,9-diazaspiro[5.5]undecan-2-one]",< 100
6,"Cn1nc(-c2cc(C(F)(F)F)c(F)c(O)c2F)c2cnc(N3CCC4(CCOC4)CC3)nc21 [Compound 18.37, 2,6-Difluoro-3-(1-methyl-6-(2-oxa-8-azaspiro[4.5]decan-8-yl)-1H-pyrazolo[3,4-d]pyrimidin-3-y1)-5-(trifluoromethyl)phenol]",< 100

# Now from value to compound:
row,IC50 [nM],SMILES
1,100 to 1000,"CS(=O)(=O)N1CCN(c2ccc3oc(-c4ccc(F)c(O)c4)nc3c2)CC1 [Compound 4, 2-Fluoro-5-(5-(4-(methylsulfonyl)piperazin-1-yl)benzo[d]oxazol-2-yl)phenol]"
2,1000 to 30000,"CS(=O)(=O)N1CCN(c2ccc3oc(-c4cc(C(F)(F)F)cc(O)n4)nc3c2)CC1 [Compound 7.01, 6-(5-(4-(Methylsulfonyl)piperazin-1-yl)benzo[d]oxazol-2-yl)-4-(trifluoromethyl)pyridin-2-ol]"
3,< 100,"O=C(NC1CCCC1)c1ccc2oc(-c3cc(O)c(F)c(F)c3)nc2c1 [Compound 1.02, N-Cyclopentyl-2-(3,4-difluoro-5-hydroxyphenyl)benzo[d]oxazole-5-carboxamide]"
4,1000 to 30000,"Cn1nc(-c2ccc(Cl)c(O)c2Cl)c2cnc(N3CCN(S(C)(=O)=O)C4(CC4)C3)nc21 [Compound 12.07, 2,6-Dichloro-3-(1-methyl-6-(4-(methylsulfonyl)-4,7-diazaspiro[2.5]octan-7-yl)-1H-pyrazolo[3,4-d]pyrimidin-3-yl)phenol]"
5,100 to 1000,"Cn1nc(-c2cc(C(F)(F)F)c(F)c(O)c2F)c2cnc(N3CCNC(=O)C3)cc21 [Compound 9.92, 4-(3-(2,4-Difluoro-3-hydroxy-5-(trifluoromethyl)phenyl)-1-methyl-1H-pyrazolo[4,3-c]pyridin-6-yl)piperazin-2-one]"
6,100 to 1000,"CS(=O)(=O)N1CC(NC(=O)c2ccc3oc(-c4cc(C(F)(F)F)c(F)c(O)c4F)nc3c2)C1 [Compound 1.20, 2-(2,4-Difluoro-3-hydroxy-5-(trifluoromethyl)phenyl)-N-(1-(methylsulfonyl)azetidin-3-yl)benzo[d]oxazole-5-carboxamide]"
7,100 to 1000,"CS(=O)(=O)N1CCN(c2ccc3c(-c4cc(O)c(F)c(C(F)(F)F)c4)n[nH]c3n2)CC1 [Compound 10.03, 2-Fluoro-5-(6-(4-(methylsulfonyl)piperazin-1-yl)-1H-pyrazolo[3,4-b]pyridin-3-yl)-3-(trifluoromethyl)phenol]"
